Data published in US12139454B2, “Dimethylcyclobutanone compounds, dimethylcyclobutane compounds, and processes for preparing the same” (Shin-Etsu Chemical Co., Ltd., priority 2019, dated 2024).

What was measured:
[1] = tested on: Planococcus citri; assay: Field sticky-trap luring test with lures in a navel orange field; type: in vivo; settings: inferred from lures A and C with high contents versus lure B with low contents
Source text: The mixture of cis-(3-isopropenyl-2,2-dimethylcyclobutyl)methyl acetate, trans-(3-isopropenyl-2,2-dimethylcyclobutyl)methyl acetate, and (3-isopropylidene-2,2-dimethylcyclobutyl)methyl acetate obtained as in Example 35 was separated by 10% silver nitrate silica gel column chromatography (hexane:ethyl acetate=100:1). After the separation, they were mixed in a weight ratio of 100:43:4, 100:5:1, and 100:96:96. The mixtures were loaded each on a rubber cap made of isoprene each in an amount of 200 μg of cis-(3-isopropenyl-2,2-dimethylcyclobutyl)methyl acetate to prepare Lures A, B and C shown in the Table 1 below.
Lures A, B and C and the commercially available lure, Pherodis Planococcus citri (Koppert Biological Systems), were attached each to a sticky. Those and a sticky trap without a lure (blank) were placed in a navel orange field in Port Elizabeth, South Africa. Then, the number of lured and killed adult males of Planococcus citri (generic name: Citrus mealybug) in each trap was counted every other week. Each lure was changed every month.

[2] = tested on: Planococcus citri; settings: J. Econ. Entomol. 97, 361 (2004); cited from earlier work

Row | Structure (SMILES) | lure-inhibitory activity (surmised from the lure comparison) [1] | sex pheromone activity / effect on the attraction [2]
1 | C=C(C)[C@H]1C[C@H](COC(C)=O)C1(C)C (relative stereo) [trans-(3-isopropenyl-2,2-dimethylcyclobutyl)methyl acetate] | lure-inhibitory activity | 
2 | C=C(C)[C@@H]1C[C@H](COC(C)=O)C1(C)C [(1S,3S)-(3-isopropenyl-2,2-dimethylcyclobutyl) methyl acetate] |  | not a sex pheromone substance, but does not disturb the attraction
3 | CC(=O)OCC1CC(=C(C)C)C1(C)C (stereo not drawn) [(3-isopropylidene-2,2-dimethylcyclobutyl)methyl acetate] | lure-inhibitory activity | 
